US12227494B2, “Polymorphisms of HM30181 mesylate” (ATHENEX R&D, LLC, priority 2020, dated 2025)

Test: Polymorph screening (slurry, liquid vapor diffusion, cooling, evaporation, anti-solvent, large scale) with crystal type by XRPD
Assay type: physicochemical
Conditions: for Observations: large scale (200 mg)
Method: Slurry-based generation and/or screening for HM30181 mesylate polymorphs was performed by preparing slurries of starting material HM30181 mesylate Type A in a variety of solvents and under a variety of conditions as described below. The resulting solids were analyzed by XRPD and identified for physical state.
Generation and/or screening of HM30181 mesylate polymorphs was also performed by preparing HM30181 mesylate Type A starting material for liquid and solid vapor diffusion as described below. Resulting solids were analyzed by XRPD and identified for physical state. Liquid vapor diffusion of MTBE into NMP solution yielded HM30181 mesylate Type D (see FIG. 21). Liquid vapor diffusion of MEK into NMP or DMA solution yielded HM30181 mesylate Type D (see FIG. 21). […] Liquid vapor diffusion of 2-MeTHF into DMA or DMF solution yielded HM30181 mesylate Type E (see FIG. 22). Liquid vapor diffusion of MTBE into DMA solution yielded HM30181 mesylate Type E, with a few additional diffraction peaks, which Inventors believe are attributable to HM30181 mesylate Type I (see FIGS. 4 to 8). Liquid vapor diffusion of ACN into DMSO solution yielded HM30181 mesylate Type H (see FIG. 23). Liquid vapor diffusion of Acetone, Ethyl Acetate, or isopropyl acetate into DMA solution yielded HM30181 mesylate Type I (see FIG. 24).
Generation and/or screening of HM30181 mesylate polymorphs by cooling was carried out by treating HM30181 mesylate Type A starting material using gradual or rapid (i.e. crash) cooling as described below. The resulting solids were analyzed by XRPD and identified for physical state.
HM30181 mesylate was also subjected to evaporation methods by treating HM30181 mesylate Type A starting material as described below. The resulting solids were analyzed by XRPD and identified for physical state.
Generation and/or screening of HM30181 mesylate polymorphs by treatment with anti-solvents was performed by treating HM30181 mesylate Type A starting material as described below. The resulting solids were analyzed by XRPD and identified for physical state. Anti-solvent studies in DMSO yielded HM30181 mesylate Type C (see FIG. 26). Anti-solvent studies in N,N-dimethylacetamide with methyl t-butyl ether yielded a HM30181 mesylate Type F polymorphism (see FIG. 27). Anti-solvent addition and reverse anti-solvent addition in DMSO/EtOAc, DMA/MIBK, DMA/toluene and NMP/t-BuOH yielded primarily amorphous content and a polymorphism with some similarity to HM30181 mesylate Type J (see FIG. 28). Other anti-solvent studies in DMSO and DMF yielded a HM30181 mesylate Type K polymorphism (or possibly a mixture of types, see FIG. 29). Anti-solvent experiments in DMF/n-propanol and DMA/isopropanol yielded a HM30181 mesylate Type L polymorphism (see FIG. 30). Anti-solvent addition DMF/Toluene and DMA/t-BuOH were mostly amorphous, but also generated HM30181 mesylate Type M (see FIG. 31).
Large scale studies were performed with HM30181 mesylate Type A starting material on a 200 mg scale as described below. Solids were isolated by vacuum filtration. The wet cakes from filtration from DMA, DMF, and NMP slurries were washed with 1 mL to 2 mL methanol to remove solvents. Solids were then vacuum dried at 80° C. overnight.
Screening of polymorphisms of HM30181 mesylate can include preparation of a slurry. Typically, a slurry was prepared by suspending 5 mg to 20 mg of sample in 0.1 mL to 0.5 mL solvent in a 1.5 mL or 3.0 mL glass vial. The suspension a was stirred at target temperature (e.g. 4° C., ambient temperature, 50° C.) at 200 rpm. Solids for X-ray powder diffraction (XRPD) analysis were separated by centrifuging at 14,000 rpm for 5 minutes at ambient temperature. If no solid or gel is obtained, the slurry can be move to a fume hood for evaporation of the solvent.
In some embodiments anti-solvent addition was used. […]

COc1cc2c(cc1OC)CN(CCc1ccc(-n3nnc(-c4cc(OC)c(OC)cc4NC(=O)c4cc(=O)c5ccccc5o4)n3)cc1)CC2.CS(=O)(=O)O [HM30181 mesylate Type A, HM30181 mesylate]
Type A: Identification (anti-solvent (Table 13), solvent CHCl3, anti-solvent EtOH 10 mL, NB 6004273-06-A102) | Identification (anti-solvent (Table 13), solvent CHCl3, anti-solvent MTBE 10 mL, NB 6004273-06-A103) | Identification (anti-solvent (Table 13), solvent CHCl3, anti-solvent n-Heptane 10 mL, NB 6004273-06-A104) | Identification (anti-solvent, solvent CHCl3, anti-solvent 2-MeTHF 10 mL, NB 6004273-06-A27) | Identification (anti-solvent, solvent CHCl3, anti-solvent ACN 10 mL, NB 6004273-06-A30) | Identification (anti-solvent, solvent CHCl3, anti-solvent Acetone 10 mL, NB 6004273-06-A22) | Identification (anti-solvent, solvent CHCl3, anti-solvent CPME 10 mL, NB 6004273-06-A42) | Identification (anti-solvent, solvent CHCl3, anti-solvent Cyclohexane 10 mL, NB 6004273-06-A35) | Identification (anti-solvent, solvent CHCl3, anti-solvent DCM 10 mL, NB 6004273-06-A31) | Identification (anti-solvent, solvent CHCl3, anti-solvent EtOAc 10 mL, NB 6004273-06-A24) | Identification (anti-solvent, solvent CHCl3, anti-solvent Ethanol 10 mL, NB 6004273-06-A20) | Identification (anti-solvent, solvent CHCl3, anti-solvent Ethyl formate 10 mL, NB 6004273-06-A40) | Identification (anti-solvent, solvent CHCl3, anti-solvent IPA 10 mL, NB 6004273-06-A21) | Identification (anti-solvent, solvent CHCl3, anti-solvent MEK 10 mL, NB 6004273-06-A36) | Identification (anti-solvent, solvent CHCl3, anti-solvent MIBK 10 mL, NB 6004273-06-A23) | Identification (anti-solvent, solvent CHCl3, anti-solvent MTBE 10 mL, NB 6004273-06-A29) | Identification (anti-solvent, solvent CHCl3, anti-solvent MeOAc 10 mL, NB 6004273-06-A34) | Identification (anti-solvent, solvent CHCl3, anti-solvent THF 10 mL, NB 6004273-06-A26) | Identification (anti-solvent, solvent CHCl3, anti-solvent Toluene 10 mL, NB 6004273-06-A32) | Identification (anti-solvent, solvent CHCl3, anti-solvent iBuOAc 10 mL, NB 6004273-06-A41) | Identification (anti-solvent, solvent CHCl3, anti-solvent iPrOAc 10 mL, NB 6004273-06-A25) | Identification (anti-solvent, solvent CHCl3, anti-solvent n-Heptane 10 mL, NB 6004273-06-A33) | Identification (anti-solvent, solvent CHCl3, anti-solvent n-Propanol 10 mL, NB 6004273-06-A38) | Identification (anti-solvent, solvent CHCl3, anti-solvent n-Propyl acetate 10 mL, NB 6004273-06-A39) | Identification (anti-solvent, solvent CHCl3, anti-solvent t-Butanol 10 mL, NB 6004273-06-A37) | Identification (anti-solvent, solvent DMF, anti-solvent EtOAc 10 mL, NB 6004273-06-A47) | Identification (anti-solvent, solvent DMF, anti-solvent MTBE 10 mL, NB 6004273-06-A52) | Identification (anti-solvent, solvent DMF, anti-solvent n-Propyl acetate 10 mL, NB 6004273-06-A61) | Identification (anti-solvent, solvent NMP, anti-solvent 1,4-Dioxane 20 mL, NB 6004273-06-A70) | Observations (Slurry at ambient temperature, DMF 0.2 mL, 595 mg/mL, Desired Type F, NB 6004273-10-F)
Type E: Observations (Slurry at ambient temperature, DMA 0.2 mL, 576 mg/mL, Desired Type E, NB 6004273-10-E)
Type C: XRPD (wet cake) (Crash cooling 50° C.-->−20° C., ACN 10 mL, API 12.6 mg, Exp. 6007235-17-C12) | XRPD (wet cake) (Slow Cooling 50° C.-->4° C., ACN 10 mL, API 12.6 mg, Exp. 6007235-17-C4) | Identification (anti-solvent, solvent DMSO, anti-solvent ACN 20 mL, NB 6004273-06-A11) | Observations (Slurry at ambient temperature, MeCN 0.2 mL, 545 mg/mL, Desired Type C, NB 6004273-10-C)
Type M: Identification (anti-solvent, solvent DMA, anti-solvent t-Butanol 20 mL, NB 6004273-06-A97) | Identification (anti-solvent, solvent DMF, anti-solvent Toluene 10 mL, NB 6004273-06-A56)
Decomposition: Observations (Slurry at 150° C. (for 5 d), DMF 0.2 mL, 595 mg/mL, Desired Type G, NB 6004273-10-F-150C)
Type K: Identification (anti-solvent, solvent DMF, anti-solvent IPA 10 mL, NB 6004273-06-A44) | Identification (anti-solvent, solvent DMSO, anti-solvent Acetone 10 mL, NB 6004273-06-A3) | Identification (anti-solvent, solvent DMSO, anti-solvent CHCl3 20 mL, NB 6004273-06-A13) | Identification (anti-solvent, solvent DMSO, anti-solvent EtOH 20 mL, NB 6004273-06-A1) | Identification (anti-solvent, solvent DMSO, anti-solvent MIBK 10 mL, NB 6004273-06-A4) | Identification (anti-solvent, solvent DMSO, anti-solvent n-Propanol 10 mL, NB 6004273-06-A18) | Identification (anti-solvent, solvent DMSO, anti-solvent n-Propyl acetate 10 mL, NB 6004273-06-A19) | Identification (anti-solvent, solvent DMSO, anti-solvent t-Butanol 10 mL, NB 6004273-06-A17)
No solids: XRPD (wet cake) (Crash Cooling 50° C.-->−20° C., CHCl3 4 mL, API 25.4 mg, Exp. 6007235-17-C10) | XRPD (wet cake) (Crash Cooling 50° C.-->−20° C., DCM 10 mL, API 22.1 mg, Exp. 6007235-17-C13) | XRPD (wet cake) (Crash Cooling 50° C.-->−20° C., EtOH 20 mL, API 5 mg, Exp. 6007235-17-C11) | XRPD (wet cake) (Crash Cooling 50° C.-->−20° C., MeOH 10 mL, API 22.9 mg, Exp. 6007235-17-C9) | XRPD (wet cake) (Slow Cooling 50° C.-->4° C., DMF 4 mL, API 25.1 mg, Exp. 6007235-17-C8) | XRPD (wet cake) (Slow Cooling 50° C.-->4° C., EtOH 20 mL, API 5 mg, Exp. 6007235-17-C3) | XRPD (wet cake) (Slow Cooling 50° C.-->4° C., MeOH 20 mL, API 24.7 mg, Exp. 6007235-17-C1) | XRPD (wet cake) (Slow Cooling 50° C.-->4° C., NMP 4 mL, API 20.9 mg, Exp. 6007235-17-C6)
Amorphous: XRPD (wet cake) (Crash Cooling 50° C.-->−20° C., DMA 4 mL, API 26.9 mg, Exp. 6007235-17-C15) | XRPD (wet cake) (Crash Cooling 50° C.-->−20° C., DMF 4 mL, API 25.1 mg, Exp. 6007235-17-C16) | XRPD (wet cake) (Crash Cooling 50° C.-->−20° C., NMP 4 mL, API 26.2 mg, Exp. 6007235-17-C14) | Identification (anti-solvent (Table 13), solvent DMSO, anti-solvent Toluene 10 mL, NB 6004273-06-A106) | Identification (anti-solvent, solvent DMF, anti-solvent EtOH 20 mL, NB 6004273-06-A43) | Identification (anti-solvent, solvent DMF, anti-solvent MIBK 10 mL, NB 6004273-06-A46) | Identification (anti-solvent, solvent DMSO, anti-solvent 2-MeTHF 10 mL, NB 6004273-06-A8) | Identification (anti-solvent, solvent DMSO, anti-solvent MTBE 20 mL, NB 6004273-06-A10) | Identification (anti-solvent, solvent DMSO, anti-solvent Toluene 10 mL, NB 6004273-06-A14) | Identification (anti-solvent, solvent NMP, anti-solvent MEK 20 mL, NB 6004273-06-A77) | Observations (Anti-solvent addition, DMA 20 mL, 5 mg/mL, anti-solvent t-BuOH 200 mL, Desired Type M, NB 6004273-10-M) | Observations (Anti-solvent addition, DMF 20 mL, 5 mg/mL, anti-solvent Toluene 300 mL, Desired Type M, NB 6004273-10-M1) | Observations (Anti-solvent addition, DMF 20 mL, 5 mg/mL, anti-solvent n-propanol 200 mL, Desired Type L, NB 6004273-10-L) | Observations (Anti-solvent addition, DMSO 10 mL, 60 mg/mL, anti-solvent MIBK 200 mL, Desired Type K, NB 6004273-10-K) | Observations (Slurry at ambient temperature, NMP 0.2 mL, 550 mg/mL, Desired Type D, NB 6004273-10-D)
Type F: Observations (Slurry at 50° C., DMF 0.2 mL, 576 mg/mL, Desired Type G, NB 6004273-10-G) | Observations (Slurry at 100° C. (for 2 days), DMF 0.2 mL, 595 mg/mL, Desired Type G, NB 6004273-10-F-100C)
Type N: Observations (Slurry at ambient temperature, MeOH 0.2 mL, 480 mg/mL, Desired Type B, NB 6004273-10-B)
